pIC50: −log10 of the molar value.

Consider 28 compounds from patent US11180488B2, “Isoxazole o-linked carbamoyl cyclohexyl acids as LPA antagonists” (BRISTOL-MYERS SQUIBB COMPANY, priority 2017, dated 2021).

The first test has as its system UUO mice.
Assay: not given
The following applies: mouse, in vivo; cited from earlier work.
Take `Cc1noc(-c2ccc(CSCCC(=O)O)cc2)c1NC(=O)OC(C)c1ccccc1Cl` (stereo not drawn) [Ki16425]: the “renal fibrosis profile of treated UUO mice” value is listed as “closely resembled the profile of LPA1 (−/−) mice”.

For a further test, the target named is T1, human LPA1 (Homo sapiens, UniProt Q92633).
T1 construct: expressed in transfected cells; host or cells: Chinese hamster ovary (CHO) cells
T1 sequence (Q92633 whole entry): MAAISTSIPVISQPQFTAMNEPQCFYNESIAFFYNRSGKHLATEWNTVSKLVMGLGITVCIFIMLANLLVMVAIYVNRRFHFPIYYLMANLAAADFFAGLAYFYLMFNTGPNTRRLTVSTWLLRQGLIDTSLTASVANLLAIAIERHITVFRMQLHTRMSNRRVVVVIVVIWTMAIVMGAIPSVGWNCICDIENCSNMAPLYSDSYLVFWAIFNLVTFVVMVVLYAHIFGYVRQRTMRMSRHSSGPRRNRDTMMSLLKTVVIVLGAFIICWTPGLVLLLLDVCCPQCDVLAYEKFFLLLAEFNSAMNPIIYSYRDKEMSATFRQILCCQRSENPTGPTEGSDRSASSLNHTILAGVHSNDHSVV
In words: LPA1 functional antagonist assay (LPA-induced calcium flux). To be noted: CHO cells overexpressing human LPA1; calcium flux induced by 10 nM LPA; read-out: LPA1 IC50. In kind it is cell-based. The protocol: The effectiveness of compounds of the present invention as LPA1 inhibitors can be determined in an LPA1 functional antagonist assay as follows:
Chinese hamster ovary cells overexpressing human LPA1 were plated overnight (15,000 cells/well) in poly-D-lysine coated 384-well microplates (Greiner bio-one, Cat #781946) in DMEM/F12 medium (Gibco, Cat #11039). Following overnight culture, cells were loaded with calcium indicator dye (AAT Bioquest Inc, Cat #34601) for 30 minutes at 37° C. The cells were then equilibrated to room temperature for 30 minutes before the assay. Test compounds solubilized in DMSO were transferred to 384 well non-binding surface plates (Corning, Cat #3575) using the Labcyte Echo acoustic dispense and diluted with assay buffer [1×HBSS with calcium/magnesium (Gibco Cat #14025-092), 20 mM HEPES (Gibco Cat #15630-080) and 0.1% fatty acid free BSA (Sigma Cat #A9205)] to a final concentration of 0.5% DMSO. Diluted compounds were added to the cells by FDSS6000 (Hamamatsu) at final concentrations ranging from 0.08 nM to 5 μM. and were then incubated for 20 min at room temperature at which time LPA (Avanti Polar Lipids Cat #857130C) was added at final concentrations of 10 nM to stimulate the cells. […] IC50 values were determined by fitting data to a 4-parameter logistic equation (GraphPad Prism, San Diego Calif.).
In the case of `Cc1nc(-c2onc(C)c2COC(=O)N(C)[C@H](C)c2ccccc2)ccc1O[C@H]1CCC[C@H](C(=O)O)C1` [Example 62], the pIC50 was 7.77.

With `Cc1nc(-c2onc(C)c2COC(=O)NC(C)(C)C)ccc1O[C@H]1CCC[C@H](C(=O)O)C1` [Example 60], the pIC50 was 6.78.

As for `Cc1nc(-c2onc(C)c2COC(=O)N[C@H](C)c2ccccc2)ccc1O[C@H]1CCC[C@H](C(=O)O)C1` [Example 59], the pIC50 was 7.35.

Consider `Cc1noc(-c2cnc(O[C@H]3CCC[C@H](C(=O)O)C3)cn2)c1COC(=O)N(C)C1CCCC1` [Example 55], for which the pIC50 is 7.06.

The same test, now with this note: CHO cells overexpressing human LPA1; calcium flux induced by 10 nM LPA; read-out: hLPA1 IC50.
With `Cc1noc(-c2ccc(O[C@H]3CCC[C@H](C(=O)O)C3)cn2)c1COC(=O)N(C)C1CC(C)(C)C1` [Example 70], the pIC50 is 7.64.

As for `Cc1nc(-c2onc(C)c2COC(=O)N(C)CC2CC2)ccc1O[C@H]1CCC[C@H](C(=O)O)C1` [Example 14], the pIC50 was 7.85.

As for `Cc1noc(-c2ccc(O[C@@H]3CCC[C@@](F)(C(=O)O)C3)cc2)c1COC(=O)N(C)C1CCCC1` [Example 6], the pIC50 is 6.99.

On to `Cc1noc(-c2ccc(O[C@H]3CCC[C@H](C(=O)O)C3)cc2)c1COC(=O)N(C)C1CCC1` [Example 36], for which the pIC50 was 6.99.

As to `Cc1noc(-c2ccc(OC3CCCC(c4nnn[nH]4)C3)cc2)c1COC(=O)N(C)C1CCCC1` (mixture of isomers) [Example 75, (5-(4-((3-(1H-tetrazol-5-yl)cyclohexyl)oxy)phenyl)-3-methylisoxazol-4-yl) methyl cyclopentyl(methyl)carbamate], the pIC50 was 6.07.

With `[2H]C([2H])([2H])N(C(=O)OCc1c(C)noc1-c1ccc(O[C@H]2CCC[C@H](C(=O)O)C2)cn1)[C@H](C)C1CC1` [Example 66], the pIC50 was 7.60.

On to `Cc1noc(-c2ccc(O[C@H]3CCC[C@H](C(=O)O)C3)cc2)c1C(C)OC(=O)N(C)CCC(C)C` (stereo partly drawn) [Example 50, (1S,3S)-3-(4-(4-(1-((isopentyl(methyl)carbamoyl)oxy)ethyl)-3-methyl-isoxazol-5-yl)phenoxy)cyclohexane-1-carboxylic Acid], for which the pIC50 was 6.76.

With `COCCN(C)C(=O)OCc1c(C)noc1-c1ccc(O[C@@H]2CCC[C@@H](C(=O)O)C2)cc1` [Example 72], the pIC50 was 6.33.

Turning to `Cc1noc(-c2ccc(O[C@@H]3CCC[C@@H](C(=O)O)C3)cc2)c1COC(=O)N(C)C(C)C1CCC1` (stereo partly drawn) [Example 69], the pIC50 is 6.67.

Take `COCC(C)N(C)C(=O)OCc1c(C)noc1-c1ccc(O[C@@H]2CCC[C@@H](C(=O)O)C2)cc1` (stereo partly drawn) [Example 67]: the pIC50 is 6.17.

As to `Cc1noc(-c2ccc(O[C@H]3CCC[C@H](C(=O)O)C3)cc2)c1COC(=O)N(C)C1CCOC1` (stereo partly drawn) [Example 31], the pIC50 was 6.43.

For `Cc1noc(-c2ccc(OC3CCCC(F)(C(=O)O)C3)cc2)c1COC(=O)N(C)C1CCCC1` (single isomer, unassigned) [Example 5], the pIC50 is 6.88.

With `Cc1noc(-c2ccc(OC3CCCC(C#N)C3)cc2)c1COC(=O)N(C)C1CCCC1` (mixture of isomers) [Example 74, (5-(4-((3-cyanocyclohexyl)oxy)phenyl)-3-methylisoxazol-4-yl)methyl cyclopentyl(methyl)carbamate], the negative logarithm of the IC50 (pIC50) was 5.49.

Take `Cc1noc(-c2ccc(O[C@@H]3CCC[C@@H](C(=O)O)C3)c(F)c2)c1COC(=O)N(C)C1CCCC1` [Example 38]: the pIC50 was 7.59.

For `Cc1noc(-c2ccc(O[C@@H]3CCC[C@@H](CC(=O)O)C3)cc2)c1COC(=O)N(C)CCC(C)C` [Example 49], the pIC50 is 5.92.

Take `Cc1nc(-c2onc(C)c2COC(=O)N(C)CC2CCC2)ccc1O[C@H]1CCC[C@H](C(=O)O)C1` [Example 11]: the pIC50 is 7.89.

Take `Cc1noc(-c2ccc(O[C@H]3CCC[C@H](C(=O)O)C3)cc2)c1COC(=O)N(C)CC1CC1` [Example 37]: the pIC50 is 6.69.

Turning to `Cc1noc(-c2ccc(O[C@H]3CCC[C@H](C(=O)O)C3)cc2)c1COC(=O)N(C)CC1CCC1` [Example 34], the pIC50 was 7.09.

For the compound `CCC(CC)N(C)C(=O)OCc1c(C)noc1-c1ccc(O[C@H]2CCC[C@H](C(=O)O)C2)c(C)n1` [Example 13], the pIC50 is 7.28.

Turning to `Cc1noc(-c2ccc(O[C@H]3CCC[C@H](C(=O)O)C3)cc2)c1C(C)OC(=O)N(C)[C@H](C)C1CC1` (stereo partly drawn) [Example 51], the pIC50 was 7.49.

For the compound `Cc1noc(-c2ccc(O[C@H]3CCC[C@@H](CC(=O)O)C3)cc2)c1COC(=O)N(C)C1CCCC1` [Example 48], the pIC50 is 5.83.

The test system of a further test is CTGF.
Assay: not given
To be noted: co-treatment, MCT cells; cited from earlier work.
For `Cc1noc(-c2ccc(CSCCC(=O)O)cc2)c1NC(=O)OC(C)c1ccccc1Cl` (stereo not drawn) [Ki16425], the “induction of CTGF expression by LPA” value was “almost completely suppressed”.

A further test concerns highly peritoneal metastatic pancreatic cancer cell line.
Assay: not given
The following applies: cited from earlier work.
On to `Cc1noc(-c2ccc(CSCCC(=O)O)cc2)c1NC(=O)OC(C)c1ccccc1Cl` (stereo not drawn) [Ki16425], for which the “LPA-induced and ascites-induced invasion activity” value is given as “blocked”.

For another test, the system named is human foetal lung fibroblasts.
Assay: not given
The following applies: cited from earlier work.
As to `Cc1noc(-c2ccc(CSCCC(=O)O)cc2)c1NC(=O)OC(C)c1ccccc1Cl` (stereo not drawn) [Ki16425], the “chemotaxis of human foetal lung fibroblasts induced by BAL from IPF patients” value is “blocked” and the “fibroblast chemotactic activity in bronchoalveolar lavage samples of IPF subjects” value is listed as “inhibited”.

In the next test the test system is nerve-injured mice.
Assay: not given
To be noted: pretreatment; cited from earlier work.
For `C[C@@H](N)[C@H]1CC[C@H](C(=O)Nc2ccncc2)CC1` [Example Y-27632], the allodynia and hyperalgesia entry is reported as “completely abolished”.

For a further test, the system named is pancreatic cancer cell lines.
Assay: not given
To be noted: cited from earlier work.
On to `Cc1noc(-c2ccc(CSCCC(=O)O)cc2)c1NC(=O)OC(C)c1ccccc1Cl` (stereo not drawn) [Ki16425], for which the “in vitro migration in response to LPA and peritoneal fluid (ascites)” value was “effectively blocked”.

The next test relates to IPF patients.
Assay: not given
The following applies: 26-week clinical trial; cited from earlier work.
In the case of `Cc1noc(-c2ccc(-c3ccc(C4(C(=O)O)CC4)cc3)cc2)c1NC(=O)O[C@H](C)c1ccccc1` [BMS-986020], the “rate of FVC (forced vital capacity) decline” value is reported as “significantly reduce”.
